Laboratory results from patent US11273152B2, “TRPV2 antagonists” (Instituto de Medicina Molecular João Lobo Antunes, priority 2017, dated 2022).
“Also recorded” adds a separate entry of the source.

Tests used:
[1] = target: TRPV4 (Homo sapiens, UniProt Q9HBA0); test: Fluorescence cell-based assay, TRPV4; conditions: calcium 5 dye, duplicate
Procedure: (§1) The assays were performed at SB Discovery (Glasgow, UK) on a fee-for-service basis. Human TRP cells were trypsinised, counted and seeded in black, clear-bottomed 96 well plates at a density of 50,000 cells per well in 100 μL volume and incubated overnight. Next day, the cells were loaded with calcium 5 dye or membrane potential dye. TRPV1-5, TRPA1, TRPM2, TRPM3, and TRPM8 were tested using the calcium 5 dye. TRPC1, TRPC3-7, and TRPM4-5 were tested using the membrane potential dye. Both dye solutions were made up in HEPES buffered Hank's balanced salt solution (HBSS). Dye solution (90 μL) was added to the wells and incubated at 37° C. for 1 hour. Test compounds and standard inhibitors (10 μL) were then added to the wells and incubated at room temperature for 10 minutes. The plates were then placed in the flexstation and fluorescence monitored every 1.52 seconds. After 20 seconds agonist was added and the fluorescence monitored for 2 minutes at 485 nm/525 nm and 530 nm/565 nm, Ex/Em, for the calcium 5 dye and the membrane potential dye respectively. Controls-TRPV1: capsazepine; TRPV2: tranilast; TRPV3: ruthenium red; TRPV4: ruthenium red; TRPV5: Gd^3+; TRPA1, ruthenium red; TRPC1: Gd^3+; TRPC3: Pyr3; TRPC4: ML 204; TRPC5: ML 204; TRPC6: ML 204; TRPC7: SKF 96365; TRPM2: 2-APB; TRPM3: Mef acid; TRPM4: clotrimazole; TRPM5: TPPO; TRPM8: 2-APB. […]

[2] = target: TRPV5 (Homo sapiens, UniProt Q9NQA5); test: Fluorescence cell-based assay, TRPV5; conditions: calcium 5 dye, duplicate
Sequence of TRPV5 (Q9NQA5 whole entry): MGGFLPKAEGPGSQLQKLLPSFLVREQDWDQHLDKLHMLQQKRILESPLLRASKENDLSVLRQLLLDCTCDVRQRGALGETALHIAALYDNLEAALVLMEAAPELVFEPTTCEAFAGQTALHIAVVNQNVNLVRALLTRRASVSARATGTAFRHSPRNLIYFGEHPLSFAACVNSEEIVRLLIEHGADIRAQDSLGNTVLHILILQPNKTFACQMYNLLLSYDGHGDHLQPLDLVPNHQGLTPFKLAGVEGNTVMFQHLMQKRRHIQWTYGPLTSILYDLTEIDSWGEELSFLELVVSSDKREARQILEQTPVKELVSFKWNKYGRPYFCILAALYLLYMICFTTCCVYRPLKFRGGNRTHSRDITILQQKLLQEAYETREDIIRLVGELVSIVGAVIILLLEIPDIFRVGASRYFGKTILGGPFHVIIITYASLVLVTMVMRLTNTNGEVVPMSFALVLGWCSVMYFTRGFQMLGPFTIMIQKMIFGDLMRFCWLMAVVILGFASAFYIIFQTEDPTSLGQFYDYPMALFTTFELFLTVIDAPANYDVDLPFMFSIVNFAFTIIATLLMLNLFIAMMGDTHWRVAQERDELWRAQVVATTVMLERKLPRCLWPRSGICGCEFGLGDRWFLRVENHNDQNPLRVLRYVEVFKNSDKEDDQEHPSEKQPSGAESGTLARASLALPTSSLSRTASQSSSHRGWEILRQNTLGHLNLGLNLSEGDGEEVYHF
Procedure: as §1

[3] = target: TRPA1 (Homo sapiens, UniProt O75762); test: Fluorescence cell-based assay, TRPA1; conditions: calcium 5 dye, spread in log units, duplicate
Procedure: as §1

[4] = target: TRPC4 (Homo sapiens, UniProt Q9UBN4); test: Fluorescence cell-based assay, TRPC4; conditions: membrane potential dye, duplicate
Sequence of TRPC4 (Q9UBN4 whole entry): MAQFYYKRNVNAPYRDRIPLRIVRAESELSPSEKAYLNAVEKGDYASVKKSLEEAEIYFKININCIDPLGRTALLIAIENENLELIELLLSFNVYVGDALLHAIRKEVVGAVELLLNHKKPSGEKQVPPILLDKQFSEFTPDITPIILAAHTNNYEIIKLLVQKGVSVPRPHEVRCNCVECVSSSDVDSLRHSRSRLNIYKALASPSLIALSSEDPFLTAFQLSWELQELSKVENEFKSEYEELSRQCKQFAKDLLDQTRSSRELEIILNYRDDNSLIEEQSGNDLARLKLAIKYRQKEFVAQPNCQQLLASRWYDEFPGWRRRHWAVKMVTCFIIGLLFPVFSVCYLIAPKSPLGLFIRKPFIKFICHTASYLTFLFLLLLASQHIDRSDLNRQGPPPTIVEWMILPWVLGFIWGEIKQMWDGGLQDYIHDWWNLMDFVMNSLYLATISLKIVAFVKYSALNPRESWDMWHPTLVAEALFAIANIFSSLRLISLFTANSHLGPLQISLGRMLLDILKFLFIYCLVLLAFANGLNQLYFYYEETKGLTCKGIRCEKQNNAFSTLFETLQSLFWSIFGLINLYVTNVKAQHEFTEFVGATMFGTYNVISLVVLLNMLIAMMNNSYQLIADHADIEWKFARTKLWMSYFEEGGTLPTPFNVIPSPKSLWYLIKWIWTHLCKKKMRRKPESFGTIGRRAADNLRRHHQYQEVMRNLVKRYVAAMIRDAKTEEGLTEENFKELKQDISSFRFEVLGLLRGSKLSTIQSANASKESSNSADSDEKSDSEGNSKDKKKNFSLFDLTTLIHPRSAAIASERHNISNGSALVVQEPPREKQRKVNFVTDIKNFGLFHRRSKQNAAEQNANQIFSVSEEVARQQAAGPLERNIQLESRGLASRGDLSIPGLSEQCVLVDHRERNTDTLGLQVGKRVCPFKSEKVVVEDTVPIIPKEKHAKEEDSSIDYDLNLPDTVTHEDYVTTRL
Procedure: as §1

[5] = target: TRPC5 (Homo sapiens, UniProt Q9UL62); test: Fluorescence cell-based assay, TRPC5; conditions: membrane potential dye, duplicate
Sequence of TRPC5 (Q9UL62 whole entry): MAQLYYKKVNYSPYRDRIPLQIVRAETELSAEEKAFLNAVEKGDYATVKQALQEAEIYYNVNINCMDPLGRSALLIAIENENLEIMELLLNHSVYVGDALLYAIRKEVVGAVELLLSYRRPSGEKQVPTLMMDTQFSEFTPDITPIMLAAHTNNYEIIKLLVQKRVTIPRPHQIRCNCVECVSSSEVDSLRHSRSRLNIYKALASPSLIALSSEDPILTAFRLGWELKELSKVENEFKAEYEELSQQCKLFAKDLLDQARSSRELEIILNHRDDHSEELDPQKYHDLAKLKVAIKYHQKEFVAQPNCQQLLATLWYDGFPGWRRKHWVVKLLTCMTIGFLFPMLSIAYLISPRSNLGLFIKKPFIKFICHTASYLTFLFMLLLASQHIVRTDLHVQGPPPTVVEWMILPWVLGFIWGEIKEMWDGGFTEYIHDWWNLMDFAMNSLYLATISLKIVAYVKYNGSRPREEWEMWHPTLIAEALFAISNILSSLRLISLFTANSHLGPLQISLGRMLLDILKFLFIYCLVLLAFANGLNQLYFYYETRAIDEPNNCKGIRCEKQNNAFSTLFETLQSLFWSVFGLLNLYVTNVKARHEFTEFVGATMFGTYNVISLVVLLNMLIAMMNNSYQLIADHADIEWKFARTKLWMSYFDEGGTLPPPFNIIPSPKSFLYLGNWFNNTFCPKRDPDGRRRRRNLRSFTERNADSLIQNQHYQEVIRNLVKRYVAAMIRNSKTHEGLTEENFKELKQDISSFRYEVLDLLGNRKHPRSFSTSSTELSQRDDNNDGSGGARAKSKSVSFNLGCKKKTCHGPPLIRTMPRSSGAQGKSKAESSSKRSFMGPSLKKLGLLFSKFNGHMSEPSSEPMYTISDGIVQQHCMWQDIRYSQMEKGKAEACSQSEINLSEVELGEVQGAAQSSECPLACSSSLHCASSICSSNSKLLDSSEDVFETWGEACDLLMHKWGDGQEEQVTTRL
Procedure: as §1

[6] = target: TRPC6 (Homo sapiens, UniProt Q9Y210); test: Fluorescence cell-based assay, TRPC6; conditions: membrane potential dye, duplicate
Sequence of TRPC6 (Q9Y210 whole entry): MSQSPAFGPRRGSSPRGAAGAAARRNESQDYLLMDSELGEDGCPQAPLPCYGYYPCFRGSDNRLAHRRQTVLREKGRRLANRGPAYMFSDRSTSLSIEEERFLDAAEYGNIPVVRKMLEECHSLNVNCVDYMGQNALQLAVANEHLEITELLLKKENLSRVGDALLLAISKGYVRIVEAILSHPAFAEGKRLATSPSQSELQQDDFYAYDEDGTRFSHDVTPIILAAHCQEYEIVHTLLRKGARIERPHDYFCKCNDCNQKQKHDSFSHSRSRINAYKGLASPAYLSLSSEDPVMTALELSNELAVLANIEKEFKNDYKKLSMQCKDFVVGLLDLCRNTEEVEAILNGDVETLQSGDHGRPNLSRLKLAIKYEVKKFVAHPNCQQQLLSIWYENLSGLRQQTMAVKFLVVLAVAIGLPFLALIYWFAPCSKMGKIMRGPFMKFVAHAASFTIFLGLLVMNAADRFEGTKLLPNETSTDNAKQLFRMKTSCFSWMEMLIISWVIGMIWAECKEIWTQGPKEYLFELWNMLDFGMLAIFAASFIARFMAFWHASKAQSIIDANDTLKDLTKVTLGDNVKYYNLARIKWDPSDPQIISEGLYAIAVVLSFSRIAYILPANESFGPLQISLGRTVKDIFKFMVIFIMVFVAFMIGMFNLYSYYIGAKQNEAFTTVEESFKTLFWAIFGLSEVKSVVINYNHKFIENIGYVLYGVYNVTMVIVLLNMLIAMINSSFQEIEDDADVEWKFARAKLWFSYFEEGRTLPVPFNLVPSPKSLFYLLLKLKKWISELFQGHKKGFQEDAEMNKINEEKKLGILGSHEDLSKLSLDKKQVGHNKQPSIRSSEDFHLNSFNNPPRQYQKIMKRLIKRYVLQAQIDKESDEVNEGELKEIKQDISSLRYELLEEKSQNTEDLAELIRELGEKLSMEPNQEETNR
Procedure: as §1

[7] = target: TRPC7 (Homo sapiens, UniProt Q9HCX4); test: Fluorescence cell-based assay, TRPC7; conditions: membrane potential dye, spread in log units, duplicate
Procedure: as §1

[8] = target: TRPM2 (Homo sapiens, UniProt O94759); test: Fluorescence cell-based assay, TRPM2; conditions: calcium 5 dye, duplicate
Sequence of TRPM2 (O94759 whole entry): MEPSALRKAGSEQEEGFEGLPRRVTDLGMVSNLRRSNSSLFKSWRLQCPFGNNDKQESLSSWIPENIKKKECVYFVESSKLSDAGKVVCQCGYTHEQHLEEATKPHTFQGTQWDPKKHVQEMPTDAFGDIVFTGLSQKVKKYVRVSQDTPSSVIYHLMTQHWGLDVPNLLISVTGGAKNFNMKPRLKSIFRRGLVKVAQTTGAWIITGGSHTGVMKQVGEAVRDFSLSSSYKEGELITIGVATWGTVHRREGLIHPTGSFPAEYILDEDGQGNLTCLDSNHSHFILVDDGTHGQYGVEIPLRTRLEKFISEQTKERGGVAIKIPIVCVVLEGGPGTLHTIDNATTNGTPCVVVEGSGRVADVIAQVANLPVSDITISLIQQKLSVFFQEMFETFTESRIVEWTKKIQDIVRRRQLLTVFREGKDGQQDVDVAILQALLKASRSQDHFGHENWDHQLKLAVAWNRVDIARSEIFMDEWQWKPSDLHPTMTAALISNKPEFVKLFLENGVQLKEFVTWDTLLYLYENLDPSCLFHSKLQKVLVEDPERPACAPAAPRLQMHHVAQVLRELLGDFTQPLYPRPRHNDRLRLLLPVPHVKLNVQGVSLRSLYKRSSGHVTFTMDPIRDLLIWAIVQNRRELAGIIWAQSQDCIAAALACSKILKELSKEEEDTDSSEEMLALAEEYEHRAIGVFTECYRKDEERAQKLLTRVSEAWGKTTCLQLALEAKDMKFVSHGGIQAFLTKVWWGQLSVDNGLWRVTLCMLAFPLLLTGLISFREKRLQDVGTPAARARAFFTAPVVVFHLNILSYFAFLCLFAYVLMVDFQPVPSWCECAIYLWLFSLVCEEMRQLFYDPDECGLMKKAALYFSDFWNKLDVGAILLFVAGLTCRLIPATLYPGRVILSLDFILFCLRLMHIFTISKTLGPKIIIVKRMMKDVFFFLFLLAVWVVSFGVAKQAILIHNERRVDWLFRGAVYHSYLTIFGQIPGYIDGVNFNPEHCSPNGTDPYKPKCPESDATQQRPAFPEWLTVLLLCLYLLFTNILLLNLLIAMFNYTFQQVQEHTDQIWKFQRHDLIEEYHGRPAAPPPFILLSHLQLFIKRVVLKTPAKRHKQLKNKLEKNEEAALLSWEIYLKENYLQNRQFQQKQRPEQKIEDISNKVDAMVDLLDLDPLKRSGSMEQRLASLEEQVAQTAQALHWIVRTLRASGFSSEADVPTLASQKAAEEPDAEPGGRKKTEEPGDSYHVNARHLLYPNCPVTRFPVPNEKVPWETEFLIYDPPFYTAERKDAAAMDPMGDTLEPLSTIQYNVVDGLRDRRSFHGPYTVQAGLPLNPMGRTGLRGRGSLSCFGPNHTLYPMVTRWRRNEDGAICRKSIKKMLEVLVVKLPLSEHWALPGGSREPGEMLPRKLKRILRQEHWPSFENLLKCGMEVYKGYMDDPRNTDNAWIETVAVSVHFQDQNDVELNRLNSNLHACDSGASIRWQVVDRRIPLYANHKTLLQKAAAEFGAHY
Procedure: as §1

[9] = target: TRPM3 (Homo sapiens, UniProt Q9HCF6); test: Fluorescence cell-based assay, TRPM3; conditions: calcium 5 dye, duplicate
Procedure: as §1

[10] = target: TRPM4 (Homo sapiens, UniProt Q8TD43); test: Fluorescence cell-based assay, TRPM4; conditions: membrane potential dye, duplicate
Procedure: as §1

[11] = system: human, ligand-gated TRP channels; test: TRP channel panel screen, activation; assay type: cell-based; conditions: TRPV, TRPC, TRPM, TRPA panel
[12] = target: T1, human TRPV2-RFP fusion protein (Homo sapiens, UniProt Q9Y5S1); test: Intracellular calcium imaging in HEK293 transfected with TRPV2-RFP; assay type: cell-based; conditions: CBD 4 μM; 1 at 5 μM; 300 s post stimulation
T1 construct: Itaru Kojima, Gunma University; host or cells: HEK293, transient
Procedure: Cells (ATCC) were grown to 50% confluency in DMEM (Gibco) supplemented with 10% FBS (Gibco), GlutaMax (Gibco), MEM and NEAA (Gibco), 4.5 g/L glucose and 0.11 g/L sodium pyruvate. Cells were seeded in μ-ibidi 8 well plates and transfected with TRPV2-RFP^34 (kindly gifted by Prof. Itaru Kojimu Gunma University, Japan). After 48 h of incubation, cells were subjected to calcium imaging. Intracellular calcium measurements were performed with Fura-2 AM (Life Technologies) and modified from previously described studies.^12 In short, 1 hour before the measurement, cells were loaded with 5 μM Fura-2-AM for 45 minutes. Cell medium was replaced by Tyrod's solution (119 mM NaCl, 5 mM KCl, 2 mM CaCl2, 2 mM MgCl2, 6 g/L glucose, 25 mM HEPES pH 7.4). Simultaneously, the respective treatment was added to the cells (final concentration of 1% DMSO (control), 5 μM piperlongumine and 10 μM tranilast) and cells were allowed to re-adjustment for 15 minutes. Fura-2 AM emissions from 340 nm and 380 nm excitation were recorded for 1 minute before TRPV2 was activated by addition of 4 μM or 20 μM cannabidiol (CBD). Image analysis was done using the MetaFluor Analyst software. The statistical analysis was performed with astatsa.com. After calcium imaging acquisition, the cells were immediately fixed with 4% paraformaldehyde for 15 min. […]

[13] = system: sperm whale TRPV2 orthologue; test: Isothermal titration calorimetry, sperm whale TRPV2; assay type: binding; conditions: sperm whale TRPV2 constructs; 100 μM
[14] = system: PC3 cell line; test: Cell viability, PC3; assay type: cell-based; conditions: 5 and 10 μM, 24 hours
Procedure: (§2) 5,000 cells/well were seeded in 96 well plates with DMEM containing 2% FBS. The next day piperlongumine was added at various concentrations. […] At 24, 48 and 72 hours the media was removed and replaced with CellTiter-Blue (Promega, 1:20 in media). The plate was incubated for 90 minutes before measuring fluorescence intensity.

[15] = system: LNCaP cell line; test: Cell viability, LNCaP; assay type: cell-based; conditions: 5 and 10 μM, 24 hours
Procedure: as §2

[16] = system: U251 cells; test: Viability of U251 cells transiently over-expressing hTRPV2; assay type: cell-based, human; conditions: 5 μM PL, 24 hours, p=0.0002, n=9, listed as PL
Procedure: 50,000 U251 cells were seeded in each well of a 24 well plate. The next day cells were transfected with hTRPV2-RFP plasmid. After incubating for 48 hours the media was changed and PL was added at 5 and 10 μM. 24 hours later cell viability was assessed using CellTitre-Blue (Promega). Transfection efficiency was assessed using flow cytometry.
Cells were harvested from plates by washing with media (HEK293) or TrypLE express (Gibco). The media was removed after centrifugation and the cells were washed twice with binding buffer before being incubated for 30 minutes at room temperature with Annexin V-APC (eBiosciences, 1:100) and 7-AAD (Pharmigen, 1:50). Samples were diluted with binding buffer and analyzed by flow cytometry using BD LSRFortessa X-20 with FACS Diva software. Samples with single stains were used as controls.

`COc1cc(/C=C/C(=O)N2CCC=CC2=O)cc(OC)c1OC` [Compound 1, piperlongumine] was tested, and the IC50 [1] was greater than 100 µM, the IC50 [2] was greater than 100 µM and the IC50 [3] was 39 ± 0.15 µM. For the same molecule, the IC50 [4] was greater than 100 µM, the IC50 [5] was greater than 100 µM and the IC50 [6] was greater than 100 µM. For the same molecule, the IC50 [7] was 64 ± 0.06 µM, the IC50 [8] was greater than 100 µM and the IC50 [9] was greater than 100 µM. The IC50 [10] was greater than 100 µM, the “Activation of the assayed TRP channels” value [11] was “did not activate any of the assayed channels” and the “Inhibition of CBD evoked calcium influx in transfected HEK293 cells” value [12] was “significant difference between control and 1 (p<0.001)”. For the same molecule, the “Binding by isothermal titration calorimetry” value [13] was “did not bind”, the Cell viability [14] was “cell viability was compromised” and the Cell viability [15] was “cell viability was compromised”. For the same molecule, the “Viability of hTRPV2-transfected cells vs non-transfected controls” value [16] was “reduced viability compared to the non-transfected controls; also recorded: increases PL toxicity”.
